Structures can show the parent of a compound that is named as a salt. Where two headings read alike, the source gives them in different places.
Key:
[1] = for t1/2: Rat Intraveneous
recombinant human MMP-13 = recombinant human MMP-13 (Homo sapiens, UniProt P45452); assay: biochemical; settings: Inhibition Table B
recombinant human MMP-1 = target: T1, recombinant human MMP-1 (Homo sapiens, UniProt P03956); assay: biochemical; settings: Inhibition Table B
T1 construct: made in house; host or cells: transfected HT-1080 cells
T1 sequence (P03956 100-469): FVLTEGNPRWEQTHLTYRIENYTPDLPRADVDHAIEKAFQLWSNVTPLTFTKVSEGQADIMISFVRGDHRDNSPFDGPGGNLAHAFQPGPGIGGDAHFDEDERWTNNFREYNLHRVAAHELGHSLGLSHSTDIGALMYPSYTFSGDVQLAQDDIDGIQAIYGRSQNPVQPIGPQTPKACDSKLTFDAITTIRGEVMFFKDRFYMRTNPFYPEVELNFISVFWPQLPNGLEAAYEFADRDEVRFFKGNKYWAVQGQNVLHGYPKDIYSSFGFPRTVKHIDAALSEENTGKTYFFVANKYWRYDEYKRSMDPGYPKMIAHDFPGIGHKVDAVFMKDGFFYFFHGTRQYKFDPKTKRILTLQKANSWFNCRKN

recombinant human MMP-2 = target: T2, recombinant human MMP-2 (Homo sapiens, UniProt P08253); assay: biochemical; settings: Inhibition Table B
T2 sequence (P08253 110-660): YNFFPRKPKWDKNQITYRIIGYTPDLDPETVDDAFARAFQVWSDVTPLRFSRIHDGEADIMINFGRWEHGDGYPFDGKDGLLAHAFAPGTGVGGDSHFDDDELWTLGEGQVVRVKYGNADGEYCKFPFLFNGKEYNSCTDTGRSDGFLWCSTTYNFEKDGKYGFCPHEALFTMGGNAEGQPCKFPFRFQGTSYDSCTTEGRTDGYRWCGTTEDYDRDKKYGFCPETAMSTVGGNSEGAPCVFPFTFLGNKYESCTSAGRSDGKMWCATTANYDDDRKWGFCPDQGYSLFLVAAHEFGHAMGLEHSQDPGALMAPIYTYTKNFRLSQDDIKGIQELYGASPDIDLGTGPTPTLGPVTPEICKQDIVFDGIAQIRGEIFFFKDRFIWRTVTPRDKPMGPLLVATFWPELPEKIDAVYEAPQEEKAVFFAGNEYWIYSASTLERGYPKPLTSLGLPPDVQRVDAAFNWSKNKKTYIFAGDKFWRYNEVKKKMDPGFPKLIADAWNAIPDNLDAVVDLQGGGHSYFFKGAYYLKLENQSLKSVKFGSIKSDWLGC

| Structure (SMILES) | t1/2 ([1]; 20 mpk) | IC50 (recombinant human MMP-13) | IC50 (recombinant human MMP-1) | IC50 (recombinant human MMP-2) | further results |
| --- | --- | --- | --- | --- | --- |
| O=C(NO)C1(S(=O)(=O)c2ccc(Oc3ccc(Cl)cc3)cc2)CCOCC1 [Example 100, 4-[[4-(4-chlorophenoxy)-phenyl]sulfonyl]-tetrahydro-N-hydroxy-2H-pyran-4-carboxamide] | 1.50 h | – | – | – | – |
| C#CCN1CCC(C(=O)NO)(S(=O)(=O)c2ccc(Oc3ccc(Cl)c(C)c3)cc2)CC1.Cl [Example 81, 4-[(4-(4-chloro-3-methylphenoxy)phenyl]sulfonyl]-N-hydroxy-1-(2-propynyl)-4-piperidinecarboxamide, monohydrochloride] | 0.76 h | – | – | – | – |
| COCCN1CCC(C(=O)NO)(S(=O)(=O)c2ccc(Oc3ccc(OC(F)(F)F)cc3)cc2)CC1.Cl [Example 416, N-hydroxy-1-(2-methoxyethyl)-4-[[4-[4-(trifluoro-methoxy)phenoxy]phenyl]sulfonyl}-4-piperidinecarboxamide, monohydrochloride] | 2.94 h | – | – | – | – |
| O=C(NO)C1(S(=O)(=O)c2ccc(Oc3ccccc3)cc2)CC[S+]([O-])CC1 (stereo not shown) [Example 111] | 0.65 h | – | – | – | – |
| CC(C)c1ccc(Oc2ccc(S(=O)(=O)C3(C(=O)NO)CCOCC3)cc2)cc1 [Example 125, tetrahydro-N-hydroxy-4-[[4-[4-(1-methylethyl)phenoxy]phenyl]-sulfonyl]-2H-pyran-4-carboxamide] | 0.73 h | – | – | – | – |
| O=C(NO)C1(S(=O)(=O)c2ccc(Oc3ccc(SC(F)(F)F)cc3)cc2)CCOCC1 [Example 382, Tetrahydro-N-hydroxy-4-[[4-[4-[(trifluoromethyl)thio]phenoxy]phenyl]-sulfonyl]-2H-pyran-4-carboxamide] | 1.71 h | – | – | – | – |
| Cl.O=C(NO)C1(S(=O)(=O)c2ccc(Oc3ccc(OC(F)(F)F)cc3)cc2)CCNCC1 [Example 410, N-hydroxy-4-[[4-[(trifluoromethoxy)phenoxy]phenyl]sulfonyl]-4-piperidinecarboxamide, monohydrochloride] | 1.78 h | – | – | – | – |
| O=C(NO)C1(S(=O)(=O)c2ccc(Oc3ccc(C(F)(F)F)cc3)cc2)CCN(Cc2ccccn2)CC1 [Example 391, N-hydroxy-1-(2-pyridinylmethyl)-4-[[4-[4-(trifluoromethyl)phenoxy]phenyl]-sulfonyl]-4-piperidinecarboxamide, dihydrochloride] | 1.45 h | – | – | – | – |
| Cl.O=C(NO)C1(S(=O)(=O)c2ccc(Oc3ccccc3)cc2)CCN(C2CC2)CC1 [Example 17, 1-cyclopropyl-N-hydroxy-4-[(4-phenoxyphenyl)sulfonyl]-4-piperidinecarboxamide] | – | – | – | – | Blood Level @ 3 min ([1]; rat, in vivo, 20 mg/kg): 63.44 µg/mL; BA ([1]; rat, in vivo, po, 20 mg/kg): 35.9%; Blood Level @ 6 hr ([1]; rat, in vivo, po, 20 mg/kg): 0.135 µg/mL |
| Cl.O=C(NO)C1(S(=O)(=O)c2ccc(Sc3ccncc3)cc2)CCOCC1 [Example 104, Tetrahydro-N-hydroxy-4-[[4-(4-pyridinylthio)phenyl]sulfonyl]-2H-pyran-4-carboxamide, monohydrochloride] | 0.66 h | – | – | – | – |
| Cl.O=C(NO)C1(S(=O)(=O)c2ccc(Oc3ccc(-n4cncn4)cc3)cc2)CCS(=O)(=O)CC1 [Example 53, Tetrahydro-N-hydroxy-4-[[4-[4-(1H-1,2,4-triazol-1-yl)phenoxy]-phenyl]-sulfonyl]-2H-thiopyran-4-carboxamide 1,1-dioxide, monohydrochloride] | 0.97 h | – | – | – | Blood Level @ 6 hr ([1]; Rat Oral, 20 mpk, 6 hr): BLD |
| CC(=O)N1CCC(C(=O)NO)(S(=O)(=O)c2ccc(Oc3ccccc3)cc2)CC1 [Example 12, 1-acetyl-N-hydroxy-4-[(4-phenoxyphenyl)sulfonyl]-4-piperidinecarboxamide] | – | – | – | – | Blood Level @ 3 min ([1]; rat, in vivo, 20 mg/kg): 73.54 µg/mL; BA ([1]; rat, in vivo, po, 20 mg/kg): 11.1%; Blood Level @ 6 hr ([1]; rat, in vivo, po, 20 mg/kg): 0.121 µg/mL |
| Cl.O=C(NO)C1(S(=O)(=O)c2ccc(Oc3ccc(Cl)cc3)cc2)CCNCC1 [Example 93, 4-[[4-(4-chlorophenoxy)-phenyl]sulfonyl]-N-hydroxy-4-piperidinecarboxamide, monohydrochloride] | 1.81 h | – | – | – | – |
| Cl.O=C(NO)C1(S(=O)(=O)c2ccc(Oc3ccc(C(F)(F)F)cc3)cc2)CCN(C2CC2)CC1 [Example 427, 1-cyclopropyl-N-hydroxy-4-[[4-[4-(trifluoromethyl)phenoxy]phenyl]sulfonyl]-4-piperidinecarboxamide, monohydrochloride] | 2.85 h | – | – | – | – |
| O=C(NO)C1(S(=O)(=O)c2ccc(Oc3ccccc3)cc2)CCSCC1 [Example 109] | 1.12 h | – | – | – | – |
| CN1CCC(C(=O)NO)(S(=O)(=O)c2ccc(Sc3ccccc3)cc2)CC1.Cl [Example 33, N-hydroxy-1-methyl-4-[[4-(phenylthio)phenyl]sulfonyl]-4-piperidinecarboxamide, monohydrochloride] | 1.91 h | – | – | – | – |
| Cl.O=C(NO)C1(S(=O)(=O)c2ccc(Oc3ccc(-n4ccnc4)cc3)cc2)CCOCC1 [Example 99, tetrahydro-N-hydroxy-4-[[4-[4-(1H-imidazol-1-yl)phenoxy]phenyl]-sulfonyl]-2H-pyran-4-carboxamide, monohydrochloride] | 0.68 h | – | – | – | – |
| CN(C)CCCN(CCCN(C)C)C(=O)C1CCN(c2ccc(S(=O)(=O)C3(C(=O)NO)CCOCC3)cc2)CC1 [Example 183] | – | 0.04 µM | > 10 µM | 0.288 µM | – |

| Structure (SMILES) | t1/2 ([1]; 20 mpk) | IC50 (recombinant human MMP-13) | IC50 (recombinant human MMP-1) | IC50 (recombinant human MMP-2) | further results |
| --- | --- | --- | --- | --- | --- |
| O=C(C1CCN(c2ccc(S(=O)(=O)C3(C(=O)NO)CCOCC3)cc2)CC1)N1CCC(O)(Cc2ccccc2)CC1 [Example 193] | – | 0.006 µM | > 10 µM | 0.39 µM | – |
| CCOC(=O)C1CCCCN1C(=O)C1CCCN(c2ccc(S(=O)(=O)C3(C(=O)NO)CCOCC3)cc2)C1 (stereo not shown) [Example 161] | – | > 0.1 µM | > 10 µM | > 1 µM | – |
| CN(C)[C@H]1CCN(C(=O)C2CCN(c3ccc(S(=O)(=O)C4(C(=O)NO)CCOCC4)cc3)CC2)C1 [Example 174] | – | > 0.1 µM | 8 µM | 0.9 µM | – |
| C#CCN1CCC(C(=O)NO)(S(=O)(=O)c2ccc([S+]([O-])c3ccccc3)cc2)CC1 (stereo not shown) [Example 47b] | – | 3.1 µM | > 10 µM | 3 µM | – |
| O=C(C1CCCN(c2ccc(S(=O)(=O)C3(C(=O)NO)CCOCC3)cc2)C1)N1CCCCC1 (stereo not shown) [Example 156] | – | 0.0278 µM | > 10 µM | 3.3 µM | – |
| O=C(C1CCN(c2ccc(S(=O)(=O)C3(C(=O)NO)CCOCC3)cc2)CC1)N1CCCCC1 [Example 149] | – | 0.0155 µM | > 10 µM | 1.6 µM | – |
| O=C(NC1CCCCC1)C1CCN(c2ccc(S(=O)(=O)C3(C(=O)NO)CCOCC3)cc2)CC1 [Example 187] | – | 0.0121 µM | > 10 µM | 0.29 µM | – |
| O=C(C1CCN(c2ccc(S(=O)(=O)C3(C(=O)NO)CCOCC3)cc2)CC1)N1CCC(O)C1 (stereo not shown) [Example 173] | – | > 0.1 µM | > 10 µM | > 1 µM | – |
| CCOC(=O)C1CCCN(C(=O)C2CCN(c3ccc(S(=O)(=O)C4(C(=O)NO)CCOCC4)cc3)CC2)C1 (stereo not shown) [Example 153] | – | 0.0135 µM | > 10 µM | 2.7 µM | – |
| O=C(NO)C1CCN(c2ccc(S(=O)(=O)C3(C(=O)NO)CCOCC3)cc2)CC1 [Example 137] | – | 0.0347 µM | > 10 µM | 0.3 µM | – |
| CCNC(=O)C1CCCN(c2ccc(S(=O)(=O)C3(C(=O)NO)CCOCC3)cc2)C1 (stereo not shown) [Example 143] | – | 0.0239 µM | > 10 µM | 0.9 µM | – |
| O=C(NN1CCOCC1)C1CCN(c2ccc(S(=O)(=O)C3(C(=O)NO)CCOCC3)cc2)CC1 [Example 185] | – | 0.0175 µM | > 10 µM | 0.21 µM | – |
| O=C(NCc1cccnc1)C1CCN(c2ccc(S(=O)(=O)C3(C(=O)NO)CCOCC3)cc2)CC1 [Example 186] | – | 0.01 µM | > 10 µM | 0.12 µM | – |
| CCOC(=O)C1CCCN(C(=O)N2CCN(c3ccc(S(=O)(=O)C4(C(=O)NO)CCOCC4)cc3)CC2)C1 (stereo not shown) [Example 212] | – | 0.02 µM | > 10 µM | 0.033 µM | – |
| CCOC(=O)C1CCCCN1C(=O)C1CCN(c2ccc(S(=O)(=O)C3(C(=O)NO)CCOCC3)cc2)CC1 (stereo not shown) [Example 154] | – | 0.027 µM | > 10 µM | 1.6 µM | – |
| CN(C)C(=O)C1CCCN(c2ccc(S(=O)(=O)C3(C(=O)NO)CCOCC3)cc2)C1 (stereo not shown) [Example 155] | – | > 0.1 µM | > 10 µM | > 1 µM | – |
| CN(C)C(=O)C1CCN(c2ccc(S(=O)(=O)C3(C(=O)NO)CCOCC3)cc2)CC1 [Example 147] | – | 0.031 µM | > 10 µM | 2.7 µM | – |
| NCCCNC(=O)C1CCCN(c2ccc(S(=O)(=O)C3(C(=O)NO)CCOCC3)cc2)C1 (stereo not shown) [Example 142] | – | 0.07 µM | > 10 µM | 0.6 µM | – |

From patent publication US20060084688A1, “Aromatic sulfone hydroxamic acid metalloprotease inhibitor” (priority 1997, published 2006)
